The values below come from publication PMC5509055 (Prostaglandins & other lipid mediators, 2017).

The target in test [1] is sphingosine kinase 1 (SK1) (Homo sapiens, UniProt Q9NYA1). Nature of the test: fluorescent NBD-sphingosine kinase assay with recombinant human SK1. Type of test: biochemical.
The target in test [2] is T1, sphingosine kinase 2 (SK2) (Homo sapiens, UniProt Q9NRA0).
T1 sequence (Q9NRA0 1-654): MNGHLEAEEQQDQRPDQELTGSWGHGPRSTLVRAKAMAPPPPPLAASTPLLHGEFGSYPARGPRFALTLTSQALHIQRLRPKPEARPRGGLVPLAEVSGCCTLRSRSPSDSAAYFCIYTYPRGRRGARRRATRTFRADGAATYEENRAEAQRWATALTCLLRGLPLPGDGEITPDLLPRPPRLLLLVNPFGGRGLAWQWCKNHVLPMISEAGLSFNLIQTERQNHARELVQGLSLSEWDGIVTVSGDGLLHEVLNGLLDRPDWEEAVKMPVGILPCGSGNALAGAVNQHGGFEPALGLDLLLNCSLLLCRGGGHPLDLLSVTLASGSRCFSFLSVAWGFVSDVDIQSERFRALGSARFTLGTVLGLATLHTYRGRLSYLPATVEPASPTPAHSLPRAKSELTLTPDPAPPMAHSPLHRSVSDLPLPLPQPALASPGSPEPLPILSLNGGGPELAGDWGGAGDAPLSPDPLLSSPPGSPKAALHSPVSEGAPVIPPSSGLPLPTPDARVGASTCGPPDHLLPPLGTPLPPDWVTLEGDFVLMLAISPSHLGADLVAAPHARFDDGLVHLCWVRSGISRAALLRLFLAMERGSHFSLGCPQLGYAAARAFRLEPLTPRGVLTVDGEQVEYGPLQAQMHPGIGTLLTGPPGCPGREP
Kind of test: fluorescent NBD-sphingosine kinase assay with recombinant human SK2. It is filed as biochemical.

Where a name gives a salt, the structure may show the parent alone.

Sequence of sphingosine kinase 1 (SK1) (Q9NYA1 whole entry): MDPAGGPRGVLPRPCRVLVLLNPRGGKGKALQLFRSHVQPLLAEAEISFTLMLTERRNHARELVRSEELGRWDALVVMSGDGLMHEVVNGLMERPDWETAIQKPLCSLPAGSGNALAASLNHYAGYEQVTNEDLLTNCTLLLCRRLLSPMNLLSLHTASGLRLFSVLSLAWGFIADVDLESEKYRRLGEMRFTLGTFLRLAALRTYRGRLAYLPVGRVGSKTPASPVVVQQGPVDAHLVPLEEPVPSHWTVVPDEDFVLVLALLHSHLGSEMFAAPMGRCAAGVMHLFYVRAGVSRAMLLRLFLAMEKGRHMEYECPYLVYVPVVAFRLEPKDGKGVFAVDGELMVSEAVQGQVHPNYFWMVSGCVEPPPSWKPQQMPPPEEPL

Regarding `CCCCCCCCCCCCC/C=C/[C@H](O)[C@@H](CO)NC(=N)N` [LCL351, L-erythro-2-N-(1′-carboxamidino)-sphingosine hydrochloride], the IC50 is about 5.5 µM in test [1] and about 57 µM in test [2].
